Holding throughout (type): cell-based, human
The test system of experiment [1] is MCF-7/Ac1 cells. As to the kind of experiment: Cell growth by cell counting, AD-stimulated cells. Particulars: Homo sapiens, MCF7, 72 h, with 25 nM AD, 3 days, read-out: inhibition of AD-induced growth. The method, then: Cell growth. The effects of the aromatase inhibitors on MCF7/Ac1 cells growth were examined by counting the cells at the indicated time. The cells were detached from their flask using trypsin and counted using a Coulter counter machine.
To examine the effects of the three different aromatase inhibitors on the proliferation of MCF-7/Ac1 cells, cells were cultured in estrogen deprived, charcoal stripped serum media (CSSM). The response of the cells to 25 nM of androstenedione (AD) alone or AD plus one of the 3 aromatase inhibitors letrozole (FIG. 22A), anastrozole (FIG. 22B), and exemestane (FIG. 22C) was measured after 3 days of treatment. Cells maintained in CSSM were used as controls.
FIGS. 22A-22C show the effect of aromatase inhibitor treatment on proliferative response and cell cycle distribution of MCF-7/Ac1 cells. Cells were cultured in IMEM with 10% charcoal-stripped serum medium (CSSM) without phenol red and with 600 μg/ml of G418 for 4 days before plating. Cells (100,000) were seeded in 100 mm dishes and, 24 hrs later, were exposed for 3 days to the specific treatment. […] CSSM, untreated cells cultured in charcoal-stripped serum medium without phenol red and with 600 μg/ml of G418.

Experiment [2] has as its system cyclin E and CDK2 complexes in MCF-7/Ac1 cells. As to the kind of experiment: Immunoprecipitation of cyclin E or CDK2 followed by western blot for p21 and p27. The method, then:
Immunoprecipitation and Immunoblotting. Two hundred fifty μg of cell extracts were used per immunoprecipitation with polyclonal antibody to cyclin E or polyclonal antibody to CDK2, coupled to protein A beads. After being washed, the immunoprecipitates were subjected to electrophoresis in 13% gels, transferred to Immobolin P, blocked, and incubated with the indicated antibodies as already described.
(§1) MCF-7/Ac1 cells were treated with the indicated concentrations of letrozole and AD for 3 days. Cyclin E kinase assays were performed by immunoprecipitating equal amounts of cell lysate (250 μg) with monoclonal antibodies to cyclin E coupled to protein A beads, using histone H1 as substrate. […] The same cell lysates were subjected to western blot analysis (50 μg of protein) with the indicated antibodies. […] The same cell lysates were first immunoprecipitated with cyclin E followed by western blot for p21 and p27. […] The same cell lysates were first immunoprecipitated with CDK2 followed by western blot for p21 and p27. The levels of proteins were measured by densitometric scanning of the corresponding bands and normalized using actin values. The values indicated at the bottom were compared to the values obtained with untreated cells.
On the technique in general: A western blot detects proteins with antibodies after separation by electrophoresis.

For experiment [3], the system named is CDK2-associated kinase activity in MCF-7/Ac1 cells. As to the kind of experiment: CDK2-associated kinase assay (histone H1). Particulars: with 25 nM AD, 3 days. The method, then: (§2) FIG. 28. Effect of increasing concentrations of letrozole in the presence of 25 nM AD on CDK2 kinase activity, activated CDK2 and Rb phosphorylation of MCF7/Ac1 human breast cancer cells. MCF-7/Ac1 cells were treated with the indicated concentrations of letrozole and AD for 3 days. CDK2 kinase assays were performed by immunoprecipitating equal amounts of cell lysate (250 μg) with monoclonal antibodies to CDK2 (D12, sc-6248) coupled to protein G beads, using histone H1 as substrate. […] The same cell lysates were subjected to western blot analysis (50 μg of protein) with the indicated antibodies.

Experiment [4] relates to CDK2 kinase activity in MCF-7/Ac1 cells. Put plainly: CDK2 kinase assay in LacZ or cyclin E-T1 adenovirus-infected cells. Particulars: 1 μM letrozole. The method, then: MCF-7/Ac1 cells were cultured in IMEM with 10% charcoal-stripped serum medium (CSSM) without phenol red and with 600 μg/ml of G418 for 4 days before plating. Plates were then infected with LacZ (4000 m.o.i) or increasing concentration of cyclin E-T1 adenoviruses 24 hours before drug treatment. Cells were then left untreated (E2W, estrogen withdrawal) or treated with 25 nM AD (AD) or treated with 25 nM AD and 1 μM letrozole (AD+Let) and collected 3 days later for CDK2 kinase activity. CDK2 kinase assays were performed by immunoprecipitating equal amounts of cell lysate (250 μg) with monoclonal antibodies to CDK2 (D12, sc-6248) coupled to protein G beads, using histone H1 as substrate. The bar graph represents the densitometric values of the phosphorylated histone H1 substrate.

Experiment [5] concerns MCF-7/Ac1 cells. As to the kind of experiment: Western blot of CDK2, phospho-CDK2, cyclin E, pRb. The method, then:
as §2
Western blot analysis. Cell lysates were prepared and subjected to western blot analysis as described previously (Akli et al., 2004). Briefly, 50 μg of protein were subjected to electrophoresis on SDS-PAGE and transferred to Immobilon P overnight at 4° C. at […] constant voltage. The blots were blocked overnight at 4° C. in BLOTTO [5% nonfat dried milk in 20 mM Tris, 137 mM NaCl, and 0.05% Tween (pH 7.6)]. After being washed, the blots were incubated in primary antibodies for 3 h. Primary antibodies used were cyclin E (HE-12; Santa Cruz Biotechnology), p21 (0P64; Oncogene Research Products, Boston, Mass.), p27 (K25020; BD Biosciences-Transduction Laboratories, Lexington, Ky.), cyclin-dependent kinase 2 (CDK2; Transduction Laboratories), and actin (Chemicon International, Inc., Temecula, Calif.). Blots were then incubated with goat anti-mouse or anti-rabbit immunoglobulin-horseradish peroxidase conjugate at a dilution of 1:5000 in BLOTTO for 1 h and finally washed and developed by using the Renaissance chemiluminescence system as directed by the manufacturer (Perkin-Elmer Life Sciences, Inc., Boston, Mass.). Western blots were quantitated by densitometric analysis using IPLab Gel software (Scientific Image Processing, Vienna, Va.). Densitometric values of actin were used to standardize for equal protein loading. These values were introduced into the software Graph-Pad Prism version 4.0 (GraphPad Software, Inc., San Diego, Calif.) for statistical analysis.
as §1

The text below walks through data of patent US20120114636A1, “LOW MOLECULAR WEIGHT CYCLIN E (LMW-E) AS A BIOMARKER FOR PERSONALIZATION OF CANCER THERAPIES” (The Board of Regents of the University of Texas System, priority 2009, published 2012).

Usually inhibition stands for the drop in the measured response relative to a control, in per cent.

Where only a bound is given, the exact number is not on record here.

On to `N#Cc1ccc(C(c2ccc(C#N)cc2)n2cncn2)cc1` [letrozole], for which, in experiment [1] (0.1 μM), the inhibition at 0.1 µM was found to be 37.2%. In addition, the inhibition at 1 µM in experiment [1] (1 μM) came out at 63.5%. Moreover, the “p21 binding to both cyclin E and CDK2” value in experiment [2] (letrozole with 25 nM AD) is recorded as “slightly decreased”. The “increase in p27 binding to both cyclin E and CDK2 over levels in AD treated cells” value in experiment [2] (letrozole, dose-dependent, with 25 nM AD) is given as “up to 2 fold”. In experiment [3], the “concentration that blocked the AD-induced increase in CDK2-associated kinase activity” value was not above 0.125 µM. Further, in experiment [4] (LMW cyclin E (T1) expressing cells, any m.o.i), the “block of CDK2 kinase activity” value is given as “cannot block”. Moreover, the “block of AD-induced increase in CDK2 kinase activity” value in experiment [4] (LacZ expressing cells) is “completely blocks”. In addition, the “cyclin E protein levels” value in experiment [5] (0.5 μM letrozole with 25 nM AD) was “slightly decreased”. Besides, the “effect on AD-induced increase in CDK2 protein levels” value in experiment [5] (increasing letrozole with 25 nM AD) is “blocked the increase in CDK2 protein levels in a dose dependent manner”. The “phosphorylation of endogenous CDK2 substrate pRb” value in experiment [5] (letrozole with 25 nM AD) is reported as “decreased phosphorylation”.
